# Literature values as cited in US20140073699A1, “Combination Therapies for the Treatment of Obesity” (Metabolous Pharmaceuticals, Inc., priority 2009, published 2014).
# Conditions: literature studies
row,SMILES,weight loss of body weight for drug compared with placebo
1,CCCCCCCCCCC[C@@H](C[C@@H]1OC(=O)[C@H]1CCCCCC)OC(=O)[C@H](CC(C)C)NC=O [orlistat],about 5%
2,CCN[C@@H](C)Cc1cccc(C(F)(F)F)c1 [dexfenfluramine],about 5%
3,CC(C)CC(N(C)C)C1(c2ccc(Cl)cc2)CCC1 (stereo not drawn) [sibutramine],about 5%
